Active and inactive are the calls of the source.
Assays:
[1] = DNA binding of candidate compounds, dose response, artefact control for RAD54 inhibitor project, biochemical, fluorescence polarization, cherry-pick (AID 651673); type: functional
[2] = biological target: T1, Tyrosine-protein phosphatase non-receptor type 7 (Homo sapiens, UniProt P35236); test: HTS HePTP Fluorescent Assay using OMFP substrate for In Vitro dose response studies. [Related pubchem assays (depositor defined):AID1059, AID1077, AID1784, AID2068, AID2085, AID435032, AID521]; type: functional
T1 sequence (P35236 whole entry): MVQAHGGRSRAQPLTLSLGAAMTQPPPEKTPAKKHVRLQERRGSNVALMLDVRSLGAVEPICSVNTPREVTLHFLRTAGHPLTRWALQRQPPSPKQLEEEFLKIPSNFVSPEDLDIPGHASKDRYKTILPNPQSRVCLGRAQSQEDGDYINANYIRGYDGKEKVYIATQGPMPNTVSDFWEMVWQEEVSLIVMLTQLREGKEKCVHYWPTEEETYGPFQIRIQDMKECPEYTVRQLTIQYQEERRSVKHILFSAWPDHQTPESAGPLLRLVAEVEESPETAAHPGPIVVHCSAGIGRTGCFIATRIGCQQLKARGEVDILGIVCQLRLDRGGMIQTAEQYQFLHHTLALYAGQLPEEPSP

[3] = biological target: Small ubiquitin-related modifier 1 (Homo sapiens, UniProt P63165); test: inhibitors of SUMO1 partner interactions, dose response, biochemical, FRET (AID 624383); type: functional; conditions: read-out: IC50_Mean
Small ubiquitin-related modifier 1, sequence (P63165 whole entry): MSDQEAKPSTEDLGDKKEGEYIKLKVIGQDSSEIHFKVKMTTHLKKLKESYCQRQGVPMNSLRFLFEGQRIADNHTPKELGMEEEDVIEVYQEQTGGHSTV

[4] = biological target: Voltage-gated N-type calcium channel alpha-1B subunit/Amyloid beta A4 precursor protein-binding family A member 1 (Homo sapiens, UniProt Q00975+Q02410); type: protein assay
Voltage-gated N-type calcium channel alpha-1B subunit/Amyloid beta A4 precursor protein-binding family A member 1, sequence (Q00975 whole entry): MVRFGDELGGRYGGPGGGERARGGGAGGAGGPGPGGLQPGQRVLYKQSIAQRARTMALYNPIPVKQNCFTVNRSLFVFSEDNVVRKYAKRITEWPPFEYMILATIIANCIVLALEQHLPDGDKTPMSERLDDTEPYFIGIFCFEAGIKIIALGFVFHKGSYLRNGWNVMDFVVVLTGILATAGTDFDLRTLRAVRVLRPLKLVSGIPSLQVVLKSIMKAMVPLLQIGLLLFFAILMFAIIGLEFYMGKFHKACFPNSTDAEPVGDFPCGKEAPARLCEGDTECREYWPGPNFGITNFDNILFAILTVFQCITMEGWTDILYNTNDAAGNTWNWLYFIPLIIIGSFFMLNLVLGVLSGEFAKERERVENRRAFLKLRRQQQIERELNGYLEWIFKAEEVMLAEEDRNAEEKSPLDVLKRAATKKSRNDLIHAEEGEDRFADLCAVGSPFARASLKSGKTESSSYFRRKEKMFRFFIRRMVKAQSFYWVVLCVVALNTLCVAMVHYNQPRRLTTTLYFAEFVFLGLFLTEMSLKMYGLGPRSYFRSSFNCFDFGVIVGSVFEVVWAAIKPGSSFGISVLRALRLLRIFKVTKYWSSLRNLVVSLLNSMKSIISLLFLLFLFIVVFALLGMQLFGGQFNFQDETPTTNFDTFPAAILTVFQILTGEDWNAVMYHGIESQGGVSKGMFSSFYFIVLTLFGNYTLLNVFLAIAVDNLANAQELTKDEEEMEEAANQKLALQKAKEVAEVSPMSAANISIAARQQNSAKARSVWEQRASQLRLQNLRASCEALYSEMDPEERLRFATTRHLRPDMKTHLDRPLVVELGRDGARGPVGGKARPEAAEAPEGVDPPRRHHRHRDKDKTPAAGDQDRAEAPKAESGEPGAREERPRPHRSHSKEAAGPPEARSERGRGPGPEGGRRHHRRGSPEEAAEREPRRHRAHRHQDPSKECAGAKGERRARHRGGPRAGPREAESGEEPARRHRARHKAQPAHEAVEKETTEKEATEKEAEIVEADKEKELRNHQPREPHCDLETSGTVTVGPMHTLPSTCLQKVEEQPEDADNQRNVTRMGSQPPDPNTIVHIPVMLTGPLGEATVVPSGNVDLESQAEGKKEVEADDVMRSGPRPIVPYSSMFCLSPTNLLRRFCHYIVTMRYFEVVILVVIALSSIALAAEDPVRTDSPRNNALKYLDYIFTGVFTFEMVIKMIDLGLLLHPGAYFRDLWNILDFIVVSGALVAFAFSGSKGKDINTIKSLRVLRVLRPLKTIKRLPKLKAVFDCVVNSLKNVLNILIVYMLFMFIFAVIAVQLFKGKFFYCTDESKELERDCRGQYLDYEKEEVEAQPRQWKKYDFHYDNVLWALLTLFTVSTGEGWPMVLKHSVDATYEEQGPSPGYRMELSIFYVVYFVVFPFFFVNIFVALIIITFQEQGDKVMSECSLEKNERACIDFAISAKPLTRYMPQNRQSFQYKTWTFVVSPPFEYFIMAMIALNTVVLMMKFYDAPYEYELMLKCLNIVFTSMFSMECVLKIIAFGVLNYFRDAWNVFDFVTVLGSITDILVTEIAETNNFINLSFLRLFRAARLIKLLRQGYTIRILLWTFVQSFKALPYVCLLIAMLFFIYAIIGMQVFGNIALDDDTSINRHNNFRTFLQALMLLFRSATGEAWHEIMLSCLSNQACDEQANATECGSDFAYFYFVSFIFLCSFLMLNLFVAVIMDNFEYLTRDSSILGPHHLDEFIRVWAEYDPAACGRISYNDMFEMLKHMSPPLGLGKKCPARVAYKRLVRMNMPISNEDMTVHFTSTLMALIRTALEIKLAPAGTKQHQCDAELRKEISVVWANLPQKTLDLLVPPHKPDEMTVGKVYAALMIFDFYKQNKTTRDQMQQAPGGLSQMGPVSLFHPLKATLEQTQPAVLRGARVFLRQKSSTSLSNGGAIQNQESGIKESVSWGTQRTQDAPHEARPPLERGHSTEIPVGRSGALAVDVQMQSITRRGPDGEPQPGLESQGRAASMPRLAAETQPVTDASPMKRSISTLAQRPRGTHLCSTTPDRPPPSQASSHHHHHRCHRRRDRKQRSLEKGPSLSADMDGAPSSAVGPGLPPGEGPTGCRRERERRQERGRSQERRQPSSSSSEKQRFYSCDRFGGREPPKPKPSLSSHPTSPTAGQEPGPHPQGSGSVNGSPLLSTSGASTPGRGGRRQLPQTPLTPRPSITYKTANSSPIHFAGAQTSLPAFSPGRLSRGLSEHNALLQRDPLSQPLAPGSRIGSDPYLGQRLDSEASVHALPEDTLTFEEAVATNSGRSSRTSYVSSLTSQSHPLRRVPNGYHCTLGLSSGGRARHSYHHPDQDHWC
Voltage-gated N-type calcium channel alpha-1B subunit/Amyloid beta A4 precursor protein-binding family A member 1, sequence (Q02410 whole entry): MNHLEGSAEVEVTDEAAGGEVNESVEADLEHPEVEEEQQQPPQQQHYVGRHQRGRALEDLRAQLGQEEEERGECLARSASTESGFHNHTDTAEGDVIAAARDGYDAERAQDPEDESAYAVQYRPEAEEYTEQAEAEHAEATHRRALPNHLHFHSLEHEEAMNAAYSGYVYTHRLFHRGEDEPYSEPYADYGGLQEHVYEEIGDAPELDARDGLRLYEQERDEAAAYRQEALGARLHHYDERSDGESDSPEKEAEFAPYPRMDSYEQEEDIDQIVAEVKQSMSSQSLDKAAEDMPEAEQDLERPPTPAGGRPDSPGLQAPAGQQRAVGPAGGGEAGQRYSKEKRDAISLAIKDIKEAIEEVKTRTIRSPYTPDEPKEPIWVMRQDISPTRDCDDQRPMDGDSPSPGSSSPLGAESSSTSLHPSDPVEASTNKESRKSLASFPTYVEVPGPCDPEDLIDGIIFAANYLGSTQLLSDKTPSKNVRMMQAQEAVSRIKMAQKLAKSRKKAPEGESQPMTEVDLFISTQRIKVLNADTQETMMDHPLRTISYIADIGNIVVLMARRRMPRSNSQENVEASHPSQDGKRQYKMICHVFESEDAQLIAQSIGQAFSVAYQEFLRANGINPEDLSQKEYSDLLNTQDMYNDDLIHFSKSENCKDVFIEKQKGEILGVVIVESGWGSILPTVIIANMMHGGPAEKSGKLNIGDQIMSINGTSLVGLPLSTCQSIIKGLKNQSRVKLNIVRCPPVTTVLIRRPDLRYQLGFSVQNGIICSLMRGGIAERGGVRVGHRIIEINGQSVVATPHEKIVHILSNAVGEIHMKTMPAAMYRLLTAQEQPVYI

[5] = biological target: Eukaryotic translation initiation factor 4E (Mus musculus, UniProt P63073); test: eIF4E–eIF4G protein interaction inhibitors, dose response, biochemical, TR-FRET (AID 855); type: functional;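 note: potency for disrupting eIF4E binding to eIF4GI seen as loss of FRET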
Eukaryotic translation initiation factor 4E, sequence (P63073 whole entry): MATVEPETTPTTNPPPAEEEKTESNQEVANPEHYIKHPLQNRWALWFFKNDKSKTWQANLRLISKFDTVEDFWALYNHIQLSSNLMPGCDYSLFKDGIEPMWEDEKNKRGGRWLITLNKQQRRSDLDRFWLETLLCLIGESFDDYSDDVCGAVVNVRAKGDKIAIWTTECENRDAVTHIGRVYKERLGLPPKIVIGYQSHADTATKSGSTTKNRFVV

[6] = biological target: Induced myeloid leukemia cell differentiation protein Mcl-1 (Homo sapiens, UniProt Q07820); type: functional
Induced myeloid leukemia cell differentiation protein Mcl-1, sequence (Q07820 whole entry): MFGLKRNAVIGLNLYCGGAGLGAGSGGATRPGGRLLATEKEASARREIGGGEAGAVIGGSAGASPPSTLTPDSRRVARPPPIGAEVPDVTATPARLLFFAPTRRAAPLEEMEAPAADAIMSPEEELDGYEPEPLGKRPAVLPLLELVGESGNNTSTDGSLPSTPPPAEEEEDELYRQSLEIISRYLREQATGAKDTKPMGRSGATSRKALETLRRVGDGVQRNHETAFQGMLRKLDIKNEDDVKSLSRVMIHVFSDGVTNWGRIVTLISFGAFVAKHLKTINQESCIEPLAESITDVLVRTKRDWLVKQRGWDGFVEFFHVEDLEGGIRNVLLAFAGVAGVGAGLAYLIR

[7] = biological target: Dual specificity protein phosphatase 3 (Homo sapiens, UniProt P51452); test: VHR1 phosphatase inhibitors, primary screen, biochemical, absorbance, uHTS (AID 1654)
Dual specificity protein phosphatase 3, sequence (P51452 whole entry): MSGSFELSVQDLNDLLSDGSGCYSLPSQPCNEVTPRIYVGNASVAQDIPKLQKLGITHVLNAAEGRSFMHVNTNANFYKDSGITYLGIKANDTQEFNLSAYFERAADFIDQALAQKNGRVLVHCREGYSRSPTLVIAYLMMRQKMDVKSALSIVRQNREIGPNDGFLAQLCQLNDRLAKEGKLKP

[8] = biological target: T2, Histone-lysine N-methyltransferase NSD2 (Homo sapiens, UniProt O96028); type: biochemical
T2 sequence (O96028 whole entry): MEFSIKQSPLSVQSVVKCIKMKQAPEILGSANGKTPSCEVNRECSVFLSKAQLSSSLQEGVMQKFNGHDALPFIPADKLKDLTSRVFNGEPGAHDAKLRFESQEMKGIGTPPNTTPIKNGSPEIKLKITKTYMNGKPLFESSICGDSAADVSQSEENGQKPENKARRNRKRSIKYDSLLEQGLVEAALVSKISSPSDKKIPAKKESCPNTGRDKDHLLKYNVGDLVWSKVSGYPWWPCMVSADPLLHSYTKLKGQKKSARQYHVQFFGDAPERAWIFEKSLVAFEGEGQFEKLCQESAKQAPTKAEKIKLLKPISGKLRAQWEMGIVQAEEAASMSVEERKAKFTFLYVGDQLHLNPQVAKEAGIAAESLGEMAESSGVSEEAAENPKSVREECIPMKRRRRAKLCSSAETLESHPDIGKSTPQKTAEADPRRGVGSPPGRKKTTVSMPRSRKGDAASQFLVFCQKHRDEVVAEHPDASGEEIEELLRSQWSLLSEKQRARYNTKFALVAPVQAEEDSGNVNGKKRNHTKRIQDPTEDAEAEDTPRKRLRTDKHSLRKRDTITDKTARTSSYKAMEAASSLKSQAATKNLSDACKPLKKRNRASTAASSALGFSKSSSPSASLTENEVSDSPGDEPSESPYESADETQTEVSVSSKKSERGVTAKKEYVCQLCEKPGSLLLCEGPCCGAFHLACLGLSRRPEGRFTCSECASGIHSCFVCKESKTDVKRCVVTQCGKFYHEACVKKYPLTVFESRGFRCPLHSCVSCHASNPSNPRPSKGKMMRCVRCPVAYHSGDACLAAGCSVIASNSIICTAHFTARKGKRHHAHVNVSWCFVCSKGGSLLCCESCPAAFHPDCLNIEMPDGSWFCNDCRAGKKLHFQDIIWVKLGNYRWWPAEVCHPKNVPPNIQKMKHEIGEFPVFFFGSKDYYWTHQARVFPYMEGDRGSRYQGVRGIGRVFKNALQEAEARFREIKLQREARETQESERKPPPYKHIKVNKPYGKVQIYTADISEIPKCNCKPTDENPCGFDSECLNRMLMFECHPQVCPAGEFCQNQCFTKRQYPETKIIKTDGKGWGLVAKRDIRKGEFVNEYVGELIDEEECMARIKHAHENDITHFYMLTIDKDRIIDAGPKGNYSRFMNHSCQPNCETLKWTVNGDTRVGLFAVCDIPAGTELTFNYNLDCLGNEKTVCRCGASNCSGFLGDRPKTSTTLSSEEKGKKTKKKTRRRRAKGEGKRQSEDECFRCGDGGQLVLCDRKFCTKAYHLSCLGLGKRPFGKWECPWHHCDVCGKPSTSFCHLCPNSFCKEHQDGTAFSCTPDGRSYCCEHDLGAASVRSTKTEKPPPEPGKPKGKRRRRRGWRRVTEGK

INS1 = test: beta cell apoptosis inhibitors, cytokine rescue, dose response, luminescence, retest (AID 449756); type: functional, cell-based; conditions: Rattus norvegicus;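 note: cell death triggered by IL-1 beta plus TNF-alpha plus IFN-gamma mixture; protective hits raise ATP signal compared with cytokine alone wells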
[9] = biological target: T3, Heat shock factor protein 1 (Mus musculus, UniProt P38532); test: inhibition of MG132-induced HSE-luciferase signal, confirmation, cell-based, NIH3T3, luminescence, dose retest (AID 2382); type: functional;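 note: NIH3T3 fibroblasts with HSF1-driven luciferase reporter stressed by proteasome inhibitor MG132; luminescence from HSF1-driven luciferase expression after 8 hours of MG132 stress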
T3 sequence (P38532 whole entry): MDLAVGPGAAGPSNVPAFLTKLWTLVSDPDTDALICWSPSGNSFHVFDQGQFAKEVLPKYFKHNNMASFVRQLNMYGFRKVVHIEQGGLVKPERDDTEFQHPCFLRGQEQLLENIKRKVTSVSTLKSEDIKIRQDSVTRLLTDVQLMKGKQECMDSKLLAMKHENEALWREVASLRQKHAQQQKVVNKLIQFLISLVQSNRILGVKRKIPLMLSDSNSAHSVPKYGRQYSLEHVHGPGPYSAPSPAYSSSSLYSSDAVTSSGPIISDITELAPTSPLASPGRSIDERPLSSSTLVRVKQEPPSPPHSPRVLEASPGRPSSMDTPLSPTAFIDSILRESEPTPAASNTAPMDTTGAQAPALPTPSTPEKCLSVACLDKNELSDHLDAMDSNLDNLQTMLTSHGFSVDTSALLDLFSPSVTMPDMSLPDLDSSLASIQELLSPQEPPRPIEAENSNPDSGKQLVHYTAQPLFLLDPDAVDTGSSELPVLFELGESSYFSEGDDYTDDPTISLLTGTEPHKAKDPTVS

[10] = cytotoxicity toward DRD oncogenic fibroblasts, dose response, cell-based, non-viral oncogenic, luminescence (AID 1934); type: functional; conditions: Homo sapiens
BJ = test: cytotoxicity toward BJ-TERT fibroblasts, dose response, cell-based, RAS-independent, luminescence (AID 1933); type: functional; conditions: Homo sapiens

CCN(CC)CCN1C(=O)c2cccc3cc(N)cc(c23)C1=O
AC50 [1]: 56.9 µM (active)

O=C(O)c1cccc(-n2cccc2/C=C2/NC(=O)N(c3ccc(Cl)cc3)C2=O)c1
IC50 [2]: 6.06 µM (active)
IC50 [3]: 17.4 µM (active)
IC50 [4]: 9.85 µM (active)
IC50 [5]: 4.43 µM (active)
IC50 [6]: 2.69 µM (active)
IC50 [7]: < 0.98 µM (inactive)
AC50 [8]: 0.72 µM (active)

C=C1C(=O)O[C@@H]2C[C@@H](C)[C@@H]3C=CC(=O)[C@@]3(C)[C@@H](OC(=O)CC(=O)O[C@H]3[C@@H]4C(=C)C(=O)O[C@@H]4C[C@@H](C)[C@@H]4C=CC(=O)[C@]43C)[C@H]12
AC50 (INS1): 0.312 µM (active)
EC50 [9]: 0.98 µM (active)
EC50 [10]: 0.332 µM (inconclusive)
EC50 (BJ): 0.354 µM (inconclusive)

O=S(=O)(O)c1cc(Cl)cc(N=Nc2ccc(O)cc2O)c1O
AC50 [8]: 7.27 µM (active)

— ChEMBL document CHEMBL1201862, “PubChem BioAssay data set” (2004)
